The structures appear in SMILES notation. Structures can show the parent of a compound that is named as a salt.

For the compound `CN1CCc2nc(C(=O)N[C@@H]3CN(C(=O)c4ccccc4)CC[C@@H]3NC(=O)c3cc4cc(Cl)ccc4[nH]3)sc2C1` (relative stereo) (as salt: hydrochloride) [Example 154, N-((3R*,4S*)-1-benzoyl-4-{[(5-Chloroindol-2-yl)carbonyl]amino}piperidin-3-yl]-5-methyl-4,5,6,7-tetrahydrothiazolo[5,4-c]pyridine-2-carboxamide hydrochloride], the melting point (commonly the temperature, or range, at which the solid turns liquid) was 215 to 225 °C (dec.).
For `COCC(=O)N1CC[C@H](NC(=O)c2cc3cc(F)ccc3[nH]2)[C@H](NC(=O)c2nc3c(s2)CN(C)CC3)C1` (relative stereo) (as salt: hydrochloride) the value was 190 to 208 °C (dec.); for `CN1CCc2nc(C(=O)N[C@@H]3CS(=O)(=O)CC[C@@H]3NC(=O)c3cc4cc(Cl)ccc4[nH]3)sc2C1` (relative stereo) (as salt: hydrochloride) [Example 178, N-((3R*,4R*)-4-{[(5-Chloroindol-2-yl)carbonyl]amino}-1,1-dioxohexahydro-1-thiopyran-3-yl)-5-methyl-4,5,6,7-tetrahydrothiazolo[5,4-c]pyridine-2-carboxamide hydrochloride], 241 to 244 °C; for `CN1CCc2nc(C(=O)N[C@@H]3CN(C(=O)C(F)(F)F)CC[C@@H]3NC(=O)c3cc4cc(Cl)ccc4[nH]3)sc2C1` (relative stereo) (as salt: hydrochloride) [Example 137, N-[(3R*,4S*)-4-{[(5-Chloroindol-2-yl)carbonyl]amino}-1-(2,2,2-trifluoroacetyl)piperidin-3-yl]-5-methyl-4,5,6,7-tetrahydrothiazolo[5,4-c]pyridine-2-carboxamide hydrochloride], 262 to 267 °C (dec.).
With `COCC(=O)N1CC[C@@H](NC(=O)c2cc3cc(Cl)ccc3[nH]2)[C@H](NC(=O)c2nc3c(s2)CN(C)CC3)C1` (as salt: hydrochloride) [Example 172, N-[(3R,4R)-4-{[(5-Chloroindol-2-yl)carbonyl]amino}-1-(2-methoxyacetyl)piperidin-3-yl]-5-methyl-4,5,6,7-tetrahydro-thiazolo[5,4-c]pyridine-2-carboxamide hydrochloride] the figure was 213 to 230 °C; with `CC(=O)OC(C)(C)C(=O)N1CC[C@H](NC(=O)c2cc3cc(Cl)ccc3[nH]2)[C@H](NC(=O)c2nc3c(s2)CN(C)CC3)C1` (relative stereo) [Example 148, 2-((3R*,4S*)-4-{[(5-Chloroindol-2-yl)carbonyl]amino}-3-{[(5-methyl-4,5,6,7-tetrahydrothiazolo[5,4-c]pyridin-2-yl)carbonyl]amino}piperidin-1-yl)-1,1-dimethyl-2-oxoethyl acetate], 190 °C (dec.).
With `CN1CCc2nc(C(=O)N[C@@H]3CN(S(C)(=O)=O)CC[C@@H]3NC(=O)c3cc4cc(Cl)ccc4[nH]3)sc2C1` (relative stereo) (as salt: hydrochloride) [Example 126, N-[(3R*,4S*)-{[(5-Chloroindol-2-yl)carbonyl]amino}-1-(methylsulfonyl)piperidin-3-yl]-5-methyl-4,5,6,7-tetrahydrothiazolo[5,4-c]pyridine-2-carboxamide hydrochloride] the figure was 225 to 230 °C (dec.); with `CN1CCc2nc(C(=O)N[C@@H]3CCN(S(C)(=O)=O)C[C@@H]3NC(=O)c3cc4cc(Cl)ccc4[nH]3)sc2C1` (relative stereo) (as salt: hydrochloride), 228 to 245 °C (dec.).
As to `CC(=O)N1CC[C@@H](NC(=O)c2nc3c(s2)CN(C)CC3)[C@@H](NC(=O)c2cc3cc(Cl)ccc3[nH]2)C1` (relative stereo) (as salt: hydrochloride) [Example 124, N-((3R*,4S*)-1-Acetyl-3-{[(5-chloroindol-2-yl)carbonyl]-amino}piperidin-4-yl)-5-methyl-4,5,6,7-tetrahydro-thiazolo[5,4-c]pyridine-2-carboxamide hydrochloride], the melting point was 225 to 250 °C (dec.).
For `COCC(=O)N1CC[C@H](NC(=O)c2cc3cc(Cl)ccc3[nH]2)[C@H](NC(=O)c2nc3c(s2)CN(C)CC3)C1` (relative stereo) (as salt: hydrochloride) [Example 143, N-[(3R*,4S*)-4-{[(5-Chloroindol-2-yl)carbonyl]amino}-1-(2-methoxyacetyl)piperidin-3-yl]-5-methyl-4,5,6,7-tetrahydro-thiazolo[5,4-c]pyridine-2-carboxamide hydrochloride] the value was 214 to 228 °C (dec.); for `CN1CCc2nc(C(=O)N[C@@H]3CN(C(=O)C(C)(C)CO)CC[C@@H]3NC(=O)c3cc4cc(Cl)ccc4[nH]3)sc2C1` (relative stereo) [Example 146, N-[(3R*,4S*)-4-{[(5-chloroindol-2-yl)carbonyl]amino}-1-(3-hydroxy-2,2-dimethylpropanoyl)piperidin-3-yl)-5-methyl-4,5,6,7-tetrahydrothiazolo[5,4-c]pyridine-2-carboxamide], 220 °C (dec.); for `CN1CCc2nc(C(=O)N[C@@H]3CNCC[C@@H]3NC(=O)c3cc4cc(F)ccc4[nH]3)sc2C1` (relative stereo) (as salt: hydrochloride) [Example 122, N-((3R*,4S*)-4-{[(5-Fluoroindol-2-yl)carbonyl]amino}-piperidin-3-yl)-5-methyl-4,5,6,7-tetrahydrothiazolo[5,4-c]pyridine-2-carboxamide dihydrochloride], 236 to 245 °C (dec.).
Turning to `COCCOC(=O)N1CC[C@H](NC(=O)c2cc3cc(Cl)ccc3[nH]2)[C@H](NC(=O)c2nc3c(s2)CN(C)CC3)C1` (relative stereo) (as salt: hydrochloride), the melting point is 224 to 226 °C (dec.).
On to `CC(=O)N1CC[C@H](NC(=O)c2cc3cc(F)ccc3[nH]2)[C@H](NC(=O)c2nc3c(s2)CN(C)CC3)C1` (relative stereo) (as salt: hydrochloride), for which the melting point was 202 °C (dec.).
For `COCCN1CC[C@H](NC(=O)c2cc3cc(Cl)ccc3[nH]2)[C@H](NC(=O)c2nc3c(s2)CN(C)CC3)C1` (relative stereo) (as salt: hydrochloride) the value was 238 to 242 °C (dec.).
With `CN1CCc2nc(C(=O)N[C@@H]3CN(C(=O)C4CCC4)CC[C@@H]3NC(=O)c3cc4cc(Cl)ccc4[nH]3)sc2C1` (relative stereo) (as salt: hydrochloride) the figure was 271 to 275 °C (dec.).
As to `CCNC(=O)N1CC[C@H](NC(=O)c2cc3cc(Cl)ccc3[nH]2)[C@H](NC(=O)c2nc3c(s2)CN(C)CC3)C1` (relative stereo) (as salt: hydrochloride), the melting point was 221 to 235 °C (dec.).
For `CN1CCc2nc(C(=O)N[C@@H]3CNCC[C@@H]3NC(=O)c3cc4cc(Cl)ccc4[nH]3)sc2C1` (relative stereo) (as salt: hydrochloride) [Example 118, N-((3R*,4S*)-4-{[(5-Chloroindol-2-yl)carbonyl]amino}-piperidin-3-yl)-5-methyl-4,5,6,7-tetrahydrothiazolo[5,4-c]pyridine-2-carboxamide dihydrochloride] the value was 240 to 258 °C (dec.); for `CC(C)C(=O)N1CC[C@H](NC(=O)c2cc3cc(Cl)ccc3[nH]2)[C@H](NC(=O)c2nc3c(s2)CN(C)CC3)C1` (relative stereo) (as salt: hydrochloride), 266 to 272 °C (dec.).
For `CCOC(=O)N1C[C@@H](NC(=O)c2cc3cc(Cl)ccc3[nH]2)[C@H](NC(=O)c2nc3c(s2)CN(C(C)C)CC3)C1` (as salt: hydrochloride) [Example 116, Ethyl (3R,4R)-3-{[(5-chloroindol-2-yl)carbonyl]amino}-4-{[(5-isopropyl-4,5,6,7-tetrahydrothiazolo[5,4-c]pyridin-2-yl)carbonyl]amino}pyrrolidine-1-carboxylate hydrochloride] the value was 225 to 228 °C (dec.); for `COCC(COC)C(=O)N1CC[C@H](NC(=O)c2cc3cc(Cl)ccc3[nH]2)[C@H](NC(=O)c2nc3c(s2)CN(C)CC3)C1` (relative stereo) (as salt: hydrochloride) [Example 152, N-{(3R*,4S*)-4-{[(5-Chloroindol-2-yl)carbonyl]amino}-1-[3-methoxy-2-(methoxymethyl)propanoyl]piperidin-3-yl]-5-methyl-4,5,6,7-tetrahydrothiazolo[5,4-c]pyridine-2-carboxamide hydrochloride], 178 to 184 °C (dec.).
For `CC(C)N1CCc2nc(C(=O)N[C@@H]3CN(S(C)(=O)=O)C[C@H]3NC(=O)c3cc4cc(Cl)ccc4[nH]3)sc2C1` (as salt: hydrochloride) the value was 230 to 235 °C (dec.); for `COCC(C)(C)C(=O)N1CC[C@H](NC(=O)c2cc3cc(Cl)ccc3[nH]2)[C@H](NC(=O)c2nc3c(s2)CN(C)CC3)C1` (relative stereo) [Example 147, N-[(3R*,4S*)-4-{[(5-chloroindol-2-yl)carbonyl]amino}-1-(3-methoxy-2,2-dimethylpropanoyl)piperidin-3-yl)-5-methyl-4,5,6,7-tetrahydrothiazolo[5,4-c]pyridine-2-carboxamide], 240 °C (dec.); for `CN1CCc2nc(C(=O)N[C@@H]3CN(C(=O)C4CCOCC4)CC[C@@H]3NC(=O)c3cc4cc(Cl)ccc4[nH]3)sc2C1` (relative stereo) (as salt: hydrochloride), 225 to 248 °C (dec.).
Turning to `CN1CCc2nc(C(=O)N[C@@H]3CS(=O)(=O)CC[C@@H]3NC(=O)c3cc4cc(F)ccc4[nH]3)sc2C1` (relative stereo) (as salt: hydrochloride) [Example 179, N-((3R*,4R*)-4-{[(5-Fluoroindol-2-yl)carbonyl]amino}-1,1-dioxohexahydro-1-thiopyran-3-yl)-5-methyl-4,5,6,7-tetrahydrothiazolo[5,4-c]pyridine-2-carboxamide hydrochloride], the melting point was 243 to 245 °C.
As for `CN1CCc2nc(C(=O)N[C@@H]3CN(C(=O)C(C)(C)C)CC[C@@H]3NC(=O)c3cc4cc(Cl)ccc4[nH]3)sc2C1` (relative stereo) (as salt: hydrochloride), the melting point is 250 to 255 °C (dec.).

The record behind these values is US7342014B2, “Diamine derivatives” (Daiichi Pharmaceutical Co., Ltd., priority 2001, dated 2008).
